Assay [1] has as its system adult rat ventricular cardiomyocytes. Kind of assay: cell contractility assay, edge detection method (IonOptix). It is filed as cell-based. The settings on record: atenolol 100 nM, 20 min; 1 Hz pacing; with and without 10 nM isoproterenol. As to the method: FIG. 7. Experimental data for cardiomyocyte hypertrophy (A) and cell contractility (B) assays performed with freshly isolated adult rat ventricular cardiomyocytes (CM) using atenolol coated nanoparticles (Atenolol NP) and control nanoparticles.
Freshly isolated adult rat ventricular CMs were incubated for 20 min with atenolol (100 nM), atenolol coated or control nanoparticles (both at 30 nM) and cell contractility was measured using edge detection method (IonOptix) at 1 Hz pacing frequency with and without stimulation with 10 nM isoproterenol.

A further assay deals with β1-AR (Homo sapiens, UniProt P08588). The settings on record: HEK293 cells stably expressing β1-AR; pretreatment 20 min with 30 nM; ISO 0.1 nM.
β1-AR, sequence (P08588 whole entry): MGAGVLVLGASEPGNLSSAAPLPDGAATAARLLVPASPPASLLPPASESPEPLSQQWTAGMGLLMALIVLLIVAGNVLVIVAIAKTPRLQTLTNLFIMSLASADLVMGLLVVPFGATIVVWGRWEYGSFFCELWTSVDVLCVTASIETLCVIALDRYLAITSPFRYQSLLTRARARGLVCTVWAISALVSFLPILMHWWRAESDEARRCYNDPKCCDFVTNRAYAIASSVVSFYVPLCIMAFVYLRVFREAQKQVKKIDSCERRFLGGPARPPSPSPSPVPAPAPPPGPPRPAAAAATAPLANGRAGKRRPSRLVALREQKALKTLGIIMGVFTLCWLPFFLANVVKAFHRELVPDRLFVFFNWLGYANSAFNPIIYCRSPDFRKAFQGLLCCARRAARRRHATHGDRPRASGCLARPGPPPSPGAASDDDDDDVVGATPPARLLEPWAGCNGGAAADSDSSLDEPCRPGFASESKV

Excerpt for β1-AR: Experimental data with HEK293 cells stably expressing β1-AR and the cAMP biosensor Epac1-camps.

Consider `CC(C)NCC(O)COc1ccc(CC(N)=O)cc1` (centres unmarked) [atenolol], for which the cell contractility result in assay [1] was “decrease cell contractility”. Moreover, the “inhibition of ISO-induced cAMP increase (CFP/YFP ratio)” value on β1-AR is listed as “efficacious in blocking β1-AR dependent cAMP synthesis”.

For the origin of these results see patent US11357825B2, “Means for treating cardiovascular disease” (Universitaetsklinikum Hamburg-Eppendorf, priority 2017, dated 2022).
